Key:
[1] = molecular target: Phosphatidylinositol 3-kinase catalytic subunit type 3 (Homo sapiens) (UniProt Q8NEB9); conditions: Compound concentration 100.0 nM
[2] = system: Receptor-type tyrosine-protein kinase FLT3 (Homo sapiens), P36888 [UNDEFINED MUTATION]; conditions: Compound concentration 100.0 nM
[3] = molecular target: Protein kinase C iota type (Homo sapiens) (UniProt P41743); conditions: Compound concentration 100.0 nM
[4] = molecular target: Protein kinase C epsilon type (Homo sapiens) (UniProt Q02156); conditions: Compound concentration 100.0 nM
[5] = system: Tyrosine-protein kinase ABL1 (Homo sapiens), P00519 [Q252H]; conditions: Compound concentration 100.0 nM
[6] = molecular target: TRAF2 and NCK-interacting protein kinase (Homo sapiens) (UniProt Q9UKE5); conditions: Compound concentration 100.0 nM
[7] = molecular target: Ephrin type-A receptor 7 (Homo sapiens) (UniProt Q15375); conditions: Compound concentration 100.0 nM
[8] = molecular target: Receptor-interacting serine/threonine-protein kinase 1 (Homo sapiens) (UniProt Q13546); conditions: Compound concentration 100.0 nM
Receptor-interacting serine/threonine-protein kinase 1 (Homo sapiens), sequence (Q13546 whole entry): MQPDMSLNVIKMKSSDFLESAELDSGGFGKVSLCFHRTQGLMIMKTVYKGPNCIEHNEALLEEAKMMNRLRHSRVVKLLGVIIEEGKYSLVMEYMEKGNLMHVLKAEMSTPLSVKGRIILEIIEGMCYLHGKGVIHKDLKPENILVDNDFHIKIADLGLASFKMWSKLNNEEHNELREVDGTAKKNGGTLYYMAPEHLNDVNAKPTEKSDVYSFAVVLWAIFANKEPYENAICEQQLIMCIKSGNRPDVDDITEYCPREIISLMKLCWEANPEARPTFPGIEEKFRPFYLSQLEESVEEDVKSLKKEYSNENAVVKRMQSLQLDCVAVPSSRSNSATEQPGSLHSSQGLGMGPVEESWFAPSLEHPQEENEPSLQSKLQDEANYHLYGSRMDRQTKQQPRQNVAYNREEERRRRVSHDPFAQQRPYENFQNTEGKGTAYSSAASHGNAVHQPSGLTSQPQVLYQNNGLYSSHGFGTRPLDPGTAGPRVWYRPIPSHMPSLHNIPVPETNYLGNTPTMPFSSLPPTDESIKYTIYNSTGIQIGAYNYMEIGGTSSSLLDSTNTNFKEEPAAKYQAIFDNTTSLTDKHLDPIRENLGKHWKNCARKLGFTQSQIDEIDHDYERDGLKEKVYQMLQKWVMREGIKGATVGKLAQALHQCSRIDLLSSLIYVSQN

[9] = system: Proto-oncogene tyrosine-protein kinase receptor Ret (Homo sapiens), P07949 [V804M]; conditions: Compound concentration 100.0 nM
Proto-oncogene tyrosine-protein kinase receptor Ret (Homo sapiens), P07949 [V804M], sequence (P07949 whole entry V804M, canonical isoform): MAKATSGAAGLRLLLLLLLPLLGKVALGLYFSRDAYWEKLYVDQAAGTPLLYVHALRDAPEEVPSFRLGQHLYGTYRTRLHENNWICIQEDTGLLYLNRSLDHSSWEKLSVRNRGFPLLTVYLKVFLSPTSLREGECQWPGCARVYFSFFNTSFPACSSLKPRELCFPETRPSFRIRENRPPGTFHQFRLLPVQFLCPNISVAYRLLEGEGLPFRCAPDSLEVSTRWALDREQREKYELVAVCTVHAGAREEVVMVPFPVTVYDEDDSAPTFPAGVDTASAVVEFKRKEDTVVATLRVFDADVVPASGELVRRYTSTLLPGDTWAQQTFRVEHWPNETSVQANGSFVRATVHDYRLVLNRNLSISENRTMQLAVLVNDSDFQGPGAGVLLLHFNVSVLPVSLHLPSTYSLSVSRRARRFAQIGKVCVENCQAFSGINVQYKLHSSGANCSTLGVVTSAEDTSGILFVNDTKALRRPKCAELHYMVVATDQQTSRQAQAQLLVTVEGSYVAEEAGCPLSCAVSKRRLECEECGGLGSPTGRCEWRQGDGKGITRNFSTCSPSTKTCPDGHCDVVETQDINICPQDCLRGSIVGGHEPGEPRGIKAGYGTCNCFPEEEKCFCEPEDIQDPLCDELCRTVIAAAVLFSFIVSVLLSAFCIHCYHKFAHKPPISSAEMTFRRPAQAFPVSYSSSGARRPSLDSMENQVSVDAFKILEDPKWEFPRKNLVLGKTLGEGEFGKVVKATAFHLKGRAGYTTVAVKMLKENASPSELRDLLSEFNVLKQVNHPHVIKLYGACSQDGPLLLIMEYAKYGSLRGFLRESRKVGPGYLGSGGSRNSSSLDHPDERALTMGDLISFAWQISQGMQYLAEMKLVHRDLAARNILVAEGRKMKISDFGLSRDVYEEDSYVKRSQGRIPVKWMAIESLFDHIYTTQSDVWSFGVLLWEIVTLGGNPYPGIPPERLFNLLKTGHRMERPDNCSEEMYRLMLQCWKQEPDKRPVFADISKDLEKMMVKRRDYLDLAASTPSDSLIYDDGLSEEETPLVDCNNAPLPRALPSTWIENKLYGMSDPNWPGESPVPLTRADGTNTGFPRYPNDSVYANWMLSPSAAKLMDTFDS

[10] = molecular target: Phosphorylase b kinase gamma catalytic chain, skeletal muscle/heart isoform (Homo sapiens) (UniProt Q16816); conditions: Compound concentration 100.0 nM
[11] = molecular target: Cyclin-dependent kinase 9 (Homo sapiens) (UniProt P50750); conditions: Compound concentration 100.0 nM
[12] = molecular target: Ribosomal protein S6 kinase alpha-3 (Homo sapiens) (UniProt P51812); conditions: Compound concentration 100.0 nM
[13] = molecular target: Inhibitor of nuclear factor kappa-B kinase subunit alpha (Homo sapiens) (UniProt O15111); conditions: Compound concentration 100.0 nM
[14] = molecular target: Calcium/calmodulin-dependent protein kinase kinase 1 (Homo sapiens) (UniProt Q8N5S9); conditions: Compound concentration 100.0 nM
Calcium/calmodulin-dependent protein kinase kinase 1 (Homo sapiens), sequence (Q8N5S9 whole entry, looked up): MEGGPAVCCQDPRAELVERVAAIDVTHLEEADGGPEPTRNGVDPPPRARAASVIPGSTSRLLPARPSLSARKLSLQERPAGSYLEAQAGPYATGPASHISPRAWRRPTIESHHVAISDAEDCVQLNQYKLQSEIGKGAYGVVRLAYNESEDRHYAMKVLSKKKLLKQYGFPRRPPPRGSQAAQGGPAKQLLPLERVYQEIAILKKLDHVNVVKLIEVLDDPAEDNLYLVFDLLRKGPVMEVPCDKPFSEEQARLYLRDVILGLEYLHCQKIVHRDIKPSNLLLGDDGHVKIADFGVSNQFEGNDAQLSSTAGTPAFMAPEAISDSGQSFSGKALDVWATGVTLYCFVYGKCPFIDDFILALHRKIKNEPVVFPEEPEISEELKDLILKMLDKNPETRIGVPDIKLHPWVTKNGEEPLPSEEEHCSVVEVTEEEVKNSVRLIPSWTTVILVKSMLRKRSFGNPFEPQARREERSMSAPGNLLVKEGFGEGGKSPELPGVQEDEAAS

[15] = molecular target: Myosin light chain kinase family member 4 (Homo sapiens) (UniProt Q86YV6); conditions: Compound concentration 100.0 nM
[16] = molecular target: Ephrin type-A receptor 6 (Homo sapiens) (UniProt Q9UF33); conditions: Compound concentration 100.0 nM
[17] = molecular target: Alpha-2C adrenergic receptor (Homo sapiens) (UniProt P18825); conditions: Compound concentration 10.0 uM
Alpha-2C adrenergic receptor (Homo sapiens), sequence (P18825 whole entry): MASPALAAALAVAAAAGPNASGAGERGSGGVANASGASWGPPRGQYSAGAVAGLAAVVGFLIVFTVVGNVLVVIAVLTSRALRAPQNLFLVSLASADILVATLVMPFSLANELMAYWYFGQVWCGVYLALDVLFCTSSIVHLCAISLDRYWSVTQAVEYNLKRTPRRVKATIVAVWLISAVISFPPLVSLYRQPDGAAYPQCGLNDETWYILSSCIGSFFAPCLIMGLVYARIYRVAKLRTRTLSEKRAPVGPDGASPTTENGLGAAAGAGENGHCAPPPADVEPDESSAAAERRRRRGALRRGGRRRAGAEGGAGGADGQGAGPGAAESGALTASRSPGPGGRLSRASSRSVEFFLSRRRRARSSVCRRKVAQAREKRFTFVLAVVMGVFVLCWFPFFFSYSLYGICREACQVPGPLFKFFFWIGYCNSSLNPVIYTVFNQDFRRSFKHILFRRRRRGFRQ

[18] = molecular target: Aurora kinase B (Homo sapiens) (UniProt Q96GD4); conditions: Compound concentration 100.0 nM
[19] = molecular target: Cyclin-dependent kinase 7 (Homo sapiens) (UniProt P50613); conditions: Compound concentration 100.0 nM
[20] = molecular target: Serine/threonine-protein kinase B-raf (Homo sapiens) (UniProt P15056); conditions: Compound concentration 100.0 nM
[21] = molecular target: NUAK family SNF1-like kinase 2 (Homo sapiens) (UniProt Q9H093); conditions: Compound concentration 100.0 nM
NUAK family SNF1-like kinase 2 (Homo sapiens), sequence (Q9H093 whole entry): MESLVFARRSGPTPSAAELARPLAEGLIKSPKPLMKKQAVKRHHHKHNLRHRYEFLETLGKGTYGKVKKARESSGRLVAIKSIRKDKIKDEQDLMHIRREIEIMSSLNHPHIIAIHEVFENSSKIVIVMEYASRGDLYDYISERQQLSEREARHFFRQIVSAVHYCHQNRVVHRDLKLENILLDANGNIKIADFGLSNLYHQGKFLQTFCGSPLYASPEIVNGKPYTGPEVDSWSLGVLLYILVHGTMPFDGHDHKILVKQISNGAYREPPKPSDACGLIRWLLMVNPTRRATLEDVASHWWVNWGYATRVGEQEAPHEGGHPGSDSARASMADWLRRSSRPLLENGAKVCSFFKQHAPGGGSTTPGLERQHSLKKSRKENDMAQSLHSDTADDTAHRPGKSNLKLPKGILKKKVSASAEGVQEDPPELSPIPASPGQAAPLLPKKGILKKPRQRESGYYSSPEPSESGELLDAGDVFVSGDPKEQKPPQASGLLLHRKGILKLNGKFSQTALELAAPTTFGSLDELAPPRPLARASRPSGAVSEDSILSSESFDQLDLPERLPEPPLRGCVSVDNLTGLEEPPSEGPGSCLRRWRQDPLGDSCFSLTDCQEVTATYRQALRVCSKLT

[22] = molecular target: Tyrosine-protein kinase BTK (Homo sapiens) (UniProt Q06187); conditions: Compound concentration 100.0 nM
Tyrosine-protein kinase BTK (Homo sapiens), sequence (Q06187 whole entry): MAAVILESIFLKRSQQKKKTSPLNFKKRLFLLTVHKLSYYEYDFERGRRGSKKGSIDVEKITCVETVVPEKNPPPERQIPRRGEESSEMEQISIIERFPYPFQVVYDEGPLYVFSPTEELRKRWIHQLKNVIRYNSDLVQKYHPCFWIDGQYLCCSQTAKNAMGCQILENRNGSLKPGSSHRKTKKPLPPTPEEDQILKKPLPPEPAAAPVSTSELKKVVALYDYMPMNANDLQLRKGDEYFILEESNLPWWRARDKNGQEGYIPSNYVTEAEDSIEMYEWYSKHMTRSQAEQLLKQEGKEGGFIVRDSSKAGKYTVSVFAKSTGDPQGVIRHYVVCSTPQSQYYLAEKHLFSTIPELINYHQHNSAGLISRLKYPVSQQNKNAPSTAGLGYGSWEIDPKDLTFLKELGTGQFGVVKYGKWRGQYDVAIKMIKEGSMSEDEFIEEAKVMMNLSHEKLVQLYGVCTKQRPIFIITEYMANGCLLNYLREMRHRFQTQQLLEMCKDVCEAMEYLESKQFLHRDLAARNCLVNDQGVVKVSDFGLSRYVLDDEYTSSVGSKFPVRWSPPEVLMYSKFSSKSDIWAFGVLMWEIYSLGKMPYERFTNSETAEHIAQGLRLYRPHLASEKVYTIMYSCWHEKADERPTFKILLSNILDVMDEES

[23] = system: Receptor-type tyrosine-protein kinase FLT3 (Homo sapiens), P36888 [UNDEFINED MUTATION]; conditions: Compound concentration 100.0 nM; remark: listed apart in the source
[24] = molecular target: Mitogen-activated protein kinase kinase kinase 6 (Homo sapiens) (UniProt O95382); conditions: Compound concentration 100.0 nM
[25] = system: ALK tyrosine kinase receptor (Homo sapiens), Q9UM73 [L1196M]; conditions: Compound concentration 100.0 nM
[26] = molecular target: Ephrin type-A receptor 3 (Homo sapiens) (UniProt P29320); conditions: Compound concentration 100.0 nM
[27] = molecular target: Interleukin-1 receptor-associated kinase 3 (Homo sapiens) (UniProt Q9Y616); conditions: Compound concentration 100.0 nM
[28] = system: Mast/stem cell growth factor receptor Kit (Homo sapiens), P10721 [D816H]; conditions: Compound concentration 100.0 nM
[29] = molecular target: Serine/threonine-protein kinase 17B (Homo sapiens) (UniProt O94768); conditions: Compound concentration 100.0 nM
[30] = molecular target: Casein kinase II subunit alpha (Homo sapiens) (UniProt P68400); conditions: Compound concentration 100.0 nM
[31] = molecular target: Dual specificity tyrosine-phosphorylation-regulated kinase 2 (Homo sapiens) (UniProt Q92630); conditions: Compound concentration 100.0 nM
[32] = molecular target: STE20/SPS1-related proline-alanine-rich protein kinase (Homo sapiens) (UniProt Q9UEW8); conditions: Compound concentration 100.0 nM
[33] = system: Receptor-type tyrosine-protein kinase FLT3 (Homo sapiens), P36888 [N841I]; conditions: Compound concentration 100.0 nM
[34] = molecular target: Mitogen-activated protein kinase kinase kinase 10 (Homo sapiens) (UniProt Q02779); conditions: Compound concentration 100.0 nM
[35] = molecular target: Mitogen-activated protein kinase 8 (Homo sapiens) (UniProt P45983); conditions: Compound concentration 100.0 nM
[36] = molecular target: Mast/stem cell growth factor receptor Kit (Homo sapiens) (UniProt P10721); conditions: Compound concentration 100.0 nM
[37] = molecular target: Serine/threonine-protein kinase PLK3 (Homo sapiens) (UniProt Q9H4B4); conditions: Compound concentration 100.0 nM
[38] = molecular target: Mitogen-activated protein kinase kinase kinase kinase 1 (Homo sapiens) (UniProt Q92918); conditions: Compound concentration 100.0 nM
Mitogen-activated protein kinase kinase kinase kinase 1 (Homo sapiens), sequence (Q92918 whole entry, looked up, canonical isoform): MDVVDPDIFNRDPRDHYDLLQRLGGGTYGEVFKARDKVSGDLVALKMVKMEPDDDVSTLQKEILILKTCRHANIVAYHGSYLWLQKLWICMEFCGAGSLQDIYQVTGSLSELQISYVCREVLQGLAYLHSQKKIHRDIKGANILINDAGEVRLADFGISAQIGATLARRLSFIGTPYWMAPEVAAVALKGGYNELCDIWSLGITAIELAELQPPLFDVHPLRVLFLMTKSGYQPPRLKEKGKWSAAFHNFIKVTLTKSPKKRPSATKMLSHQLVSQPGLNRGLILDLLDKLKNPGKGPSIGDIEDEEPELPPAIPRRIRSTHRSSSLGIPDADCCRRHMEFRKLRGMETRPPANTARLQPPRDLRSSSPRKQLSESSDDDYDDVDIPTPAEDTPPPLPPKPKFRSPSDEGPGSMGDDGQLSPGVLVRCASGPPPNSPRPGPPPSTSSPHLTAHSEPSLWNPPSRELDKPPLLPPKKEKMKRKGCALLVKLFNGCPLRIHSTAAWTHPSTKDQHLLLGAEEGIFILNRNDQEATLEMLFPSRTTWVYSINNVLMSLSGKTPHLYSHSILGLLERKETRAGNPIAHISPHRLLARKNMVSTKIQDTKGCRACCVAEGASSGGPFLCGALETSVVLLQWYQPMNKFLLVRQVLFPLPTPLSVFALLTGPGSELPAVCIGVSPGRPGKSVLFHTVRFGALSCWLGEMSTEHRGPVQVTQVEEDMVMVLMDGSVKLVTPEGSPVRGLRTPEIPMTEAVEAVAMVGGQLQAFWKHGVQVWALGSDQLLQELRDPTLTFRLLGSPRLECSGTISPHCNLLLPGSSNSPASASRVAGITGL

[39] = molecular target: Phosphatidylinositol 4,5-bisphosphate 3-kinase catalytic subunit beta isoform (Homo sapiens) (UniProt P42338); conditions: Compound concentration 100.0 nM
[40] = molecular target: MAP kinase-interacting serine/threonine-protein kinase 2 (Homo sapiens) (UniProt Q9HBH9); conditions: Compound concentration 100.0 nM
[41] = molecular target: cAMP-dependent protein kinase catalytic subunit alpha (Homo sapiens) (UniProt P17612); conditions: Compound concentration 100.0 nM
[42] = molecular target: Casein kinase I isoform alpha (Homo sapiens) (UniProt P48729); conditions: Compound concentration 100.0 nM
[43] = system: Phosphatidylinositol 4,5-bisphosphate 3-kinase catalytic subunit alpha isoform (Homo sapiens), P42336 [E545K]; conditions: Compound concentration 100.0 nM
[44] = system: Phosphatidylinositol 4,5-bisphosphate 3-kinase catalytic subunit alpha isoform (Homo sapiens), P42336 [H1047Y]; conditions: Compound concentration 100.0 nM

Cc1ccc(-c2cnc([C@@]3(O)CC[C@H](C(=O)O)C(C)(C)C3)s2)cc1Nc1cccc(C(F)(F)F)n1 [MRL-SYKi-NC]
inactive: residual activity [1] 67.2% | residual activity [2] 97.5% | residual activity [3] 96.2% | residual activity [4] 100% | residual activity [5] 75.4% | residual activity [6] 75.8% | residual activity [7] 94.2% | residual activity [8] 95.9% | residual activity [9] 100% | residual activity [10] 100% | residual activity [11] 100% | residual activity [12] 93% | residual activity [13] 69.7% | residual activity [14] 84.1% | residual activity [15] 100% | residual activity [16] 100% | inhibition [17] 11.8% | residual activity [18] 93.1% | residual activity [19] 86.2% | residual activity [20] 100% | residual activity [21] 93.1% | residual activity [22] 86.1% | residual activity [23] 100% | residual activity [24] 100% | residual activity [25] 100% | residual activity [26] 93.7% | residual activity [27] 93% | residual activity [28] 61.4% | residual activity [29] 94.6% | residual activity [30] 100% | residual activity [31] 82.4% | residual activity [32] 100% | residual activity [33] 89.3% | residual activity [34] 69.4% | residual activity [35] 63.7% | residual activity [36] 100% | residual activity [37] 100% | residual activity [38] 100% | residual activity [39] 77.1% | residual activity [40] 100% | residual activity [41] 100% | residual activity [42] 94% | residual activity [43] 97.7% | residual activity [44] 81.3%

Cc1cc(Nc2nccc(C)n2)cc(-c2cnc([C@@]3(O)CC[C@H](C(=O)O)C(C)(C)C3)s2)c1 [MRL-SYKi]
active: residual activity [27] 44.7% | residual activity [35] 46.6% | residual activity [44] 14.7%
inactive: residual activity [1] 99.6% | residual activity [2] 59.1% | residual activity [3] 77.3% | residual activity [4] 100% | residual activity [5] 86.9% | residual activity [6] 100% | residual activity [7] 81.3% | residual activity [8] 87.1% | residual activity [9] 81.3% | residual activity [10] 100% | residual activity [11] 100% | residual activity [12] 87.6% | residual activity [13] 100% | residual activity [14] 66.6% | residual activity [15] 100% | residual activity [16] 95.8% | inhibition [17] -3.94% | residual activity [18] 89% | residual activity [19] 100% | residual activity [20] 100% | residual activity [21] 100% | residual activity [22] 81.5% | residual activity [23] 84.8% | residual activity [24] 69.5% | residual activity [25] 100% | residual activity [26] 100% | residual activity [28] 97.7% | residual activity [29] 100% | residual activity [30] 100% | residual activity [31] 100% | residual activity [32] 81.8% | residual activity [33] 100% | residual activity [34] 95.1% | residual activity [36] 71.7% | residual activity [37] 74.6% | residual activity [38] 100% | residual activity [39] 100% | residual activity [40] 74.7% | residual activity [41] 100% | residual activity [42] 61.6% | residual activity [43] 68.3%

— ChEMBL document CHEMBL4507285, “Data for DCP probe MRL-SYKi” (2021)
